Results from ChEMBL document CHEMBL3507680, “University of Dundee, Gates Library screen for HepG2 cell viability”.

Assay: Human HepG2 cell viability assay in 384 well format
Assay type: toxicity, cell-based
Parameters: dose 125 nL, time 70.5 hour; concentration not given beside the values
Settings: HepG2 cells, read-out: Inhibition

Row | Compound | cytotoxicity at 70.5 h
1 | Cc1cccc(N2CCN(Cc3nc(CC4CC4)no3)CC2)n1 | 1.5%
2 | O=C(NCCCOC1CCCCC1)C1NCCc2[nH]cnc21 (centres undefined) | -3.08%
3 | CO[C@H]1CN(Cc2c(C)ccc3ncccc23)CC[C@H]1N | 2.94%
4 | CCn1cnnc1Cc1nc2c([nH]1)CC(c1ccc(Cl)cc1)CNC2=O (centres undefined) | 6.53%
5 | COc1ncc(C(=O)N2CCCC3(C=Cc4ccccc4O3)CC2)cn1 (centres undefined) | 13.5%
6 | COc1nc2c(cc1C(=O)N1CCCOC(CN3CCCC3)C1)CCC2 (centres undefined) | -13.7%
7 | Cc1ccc(C(=O)N2CCC3(CCC(=O)N(CCCO)C3)CC2)c(O)c1 | -8.79%
8 | Cc1cccnc1CCNCC1(O)CCCN(CC2CCCCC2)C1=O (centres undefined) | 35.9%
9 | COCc1cc(N2C[C@@H](C)[C@](O)(C3CC3)C2)ncn1 | 0.518%
10 | COC1CCCN(CCCc2cn[nH]c2)C1 (centres undefined) | 0.195%
11 | COc1ccc(C(=O)N2CC[C@@H](N3CCC(O)CC3)[C@H](O)C2)cc1C | -3.31%
12 | Cc1ccoc1C(=O)N1CCC(n2cc(-c3ccsc3)nn2)CC1 | -12.5%
13 | CCN(CC)CCn1cnc(-c2ccccc2)c1-c1cnn(CC)c1 | -10.7%
14 | CC(=O)N[C@@H]1CN(CC(=O)NCc2ccccc2C)C[C@H]1C(C)C | -6.75%
15 | C=C(C)COc1cccc(CNC(CC(C)C)c2ncnn2C)c1 (centres undefined) | -3.16%
16 | COc1cccc(CN(C)Cc2[nH]c3ccccc3c2C)c1O | 1.38%
17 | Cc1ccc(CN(Cc2ccncc2)C2CCN(C)CC2)s1 | 15.5%
18 | CSc1cccc(CNC(=O)[C@H]2CNC[C@@H](C(=O)N3CCOCC3)C2)c1 | -4.8%
19 | NC(=O)c1csc(N2CCCC(c3nc4ccccc4[nH]3)C2)n1 (centres undefined) | -2.59%
20 | CC(C)(C)N1CC(c2ncc(-c3ccc4c(c3)OCCO4)[nH]2)CC1=O (centres undefined) | -2.24%
21 | Cc1nc2c(c(N3CCC4(CCCNC4=O)C3)n1)CCC2 (centres undefined) | -4.16%
22 | CC(=O)N1Cc2cnc(C(C)(C)C)nc2C1 | 19.2%

Row | Compound | cytotoxicity at 70.5 h
23 | Cc1nnc(SCCCNC(=O)c2ccc3c(c2)OCO3)s1 | -9.91%
24 | O=C1C[C@H]2CC[C@@H](CN1)N2C(=O)Cc1ccsc1 | -8.54%
25 | CN1N=C(C(=O)N2CCCC(CCc3ccccc3)C2)CCC1=O (centres undefined) | -9.61%
26 | Cc1ccccc1C(=O)NC[C@@H]1CCN(C(=O)c2cscn2)C[C@H]1O | 18.9%
27 | CCCc1ccc(C(=O)N2CCc3c(nc(C)nc3N(C)C)C2)cc1 | -0.957%
28 | CCOCC(=O)N1C[C@H]2CC[C@@H]1CN(C(=O)c1ccncc1)C2 | -1.67%
29 | CC(C)c1cc(N[C@@H](CO)C(N)=O)n2nccc2n1 | 31.2%
30 | CC(NC(=O)c1ccc(=O)n(C)c1)c1ccccc1-n1cccn1 (centres undefined) | -19.9%
31 | CCNC(=O)C1CCN(c2cc(-c3ccccc3F)nc3ccnn23)C1 (centres undefined) | 14.5%
32 | Cc1ccc(OC2(C(=O)O)CCN(C/C=C/c3ccco3)CC2)cn1 | -5.05%
33 | Cc1oc(-c2ccoc2)nc1CN1CCC[C@H]1CO | -3.95%
34 | O=C(C1CNCCO1)N1CCC(c2cc(N3CCCC3)ncn2)CC1 (centres undefined) | 14.8%
35 | CC(C)Cc1nc(CN2CCc3onc(-c4cccc(F)c4)c3C2)no1 | -2.69%
36 | CC(C)[C@@H]1CN(CCOc2ccc(Cl)cc2)C[C@H]1NS(C)(=O)=O | -3.97%
37 | O=C(c1scc2c1OCCO2)N1CCN(Cc2cccc(F)c2)CC1 | 20.1%
38 | CN1CCN(Cc2ccccc2Cl)CC12CCC(=O)N(CC1CC1)CC2 (centres undefined) | 0.313%
39 | CCc1nc(CN(C)C(=O)c2cc(CN(CC)CC)c(CC)o2)no1 | -11.7%
40 | c1ccc(-c2ncc(CN3CCC4(CCNCC4)C3)cn2)cc1 | -7.74%
41 | c1ccc(CNc2ncc(CN3CC[C@H]4CC[C@@H](C3)N4)cn2)cc1 | 18.2%
42 | CCn1ncc(CN2CCCC(C(=O)c3ccc(Cl)cc3)C2)c1C (centres undefined) | -6.46%
43 | NC(=O)CN1CC2(CCC1=O)CCN(Cc1ccccc1F)CC2 | -5.65%
44 | CN(Cc1noc2c1CCCC2)C(=O)Nc1ccc2oc(=O)n(C)c2c1 | 20.6%
